# Test system: Erysiphe cichoracearum
# Assay: cucumber powdery mildew control on cucumber seedlings
# Type: in vivo
# Conditions: Golovinomyces cichoracearum, 168 h, 7 days
# Outline: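 Compounds at 100 ppm in water with 6% acetone and 250 ppm TREM 014 surfactant, sprayed to run-off on cucumber seedlings. Inoculation with Erysiphe cichoracearum spores the following day; disease rated after 7 days in a growth room against untreated plants.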
row,Compound,pest or weed control at 100 ppm [%]
1,C[Si](Cn1ccnc1)(c1ccccc1)c1ccc(F)cc1 (stereo not shown) [(4-Fluorophenyl)(1H-imidazol-1-ylmethyl)methyl(phenyl)silane],100
2,CCCC[Si](C)(Cn1ccnc1)c1ccc(Cl)cc1 (stereo not shown) [Butyl(4-chlorophenyl)(1H-imidazol-1-ylmethyl)methylsilane],100
3,COc1ccc([Si](C)(C)Cn2ccnc2)cc1 [Dimethyl(1H-imidazol-1-ylmethyl)(4-methoxyphenyl)silane],100
4,C[Si](C)(Cn1ccnc1)c1ccc(Oc2ccc(Cl)cc2)cc1 [[4-(4-Chlorophenoxy)phenyl]dimethyl(1H-imidazol-1-ylmethyl)silane],100
5,C[Si](Cn1ccnc1)(c1ccc(F)cc1)c1ccc(F)cc1 [bis(4-Fluorophenyl)(1H-imidazol-1-ylmethyl)methylsilane],100

# Test system: cucumber seedlings
# Assay: phytotoxicity on cucumber seedlings
# Type: in vivo
# Set-up: key: G: growth reduction; H: hormonal effects
# Conditions: 100 ppm
row,Compound,Phytotoxicity (growth reduction or hormonal effects)
1,CCCC[Si](C)(Cn1ccnc1)c1ccc(Cl)cc1 (stereo not shown) [Butyl(4-chlorophenyl)(1H-imidazol-1-ylmethyl)methylsilane],G

# Test system: Venturia inaequalis
# Assay: apple scab control on apple seedlings
# Type: in vivo
# Conditions: Venturia inaequalis; 100 ppm
# Outline: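 Apple seedlings sprayed to run-off with 100 ppm compound suspension (6% acetone, 250 ppm TREM 014 surfactant). Inoculated next day with Venturia inaequalis spores; 24 hours at 20° in saturated humidity, then 10-12 days in growth room. Scab lesions compared with untreated plants.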
row,Compound,pest or weed control at 100 ppm [%]
1,C[Si](Cn1ccnc1)(c1ccccc1)c1ccc(F)cc1 (stereo not shown) [(4-Fluorophenyl)(1H-imidazol-1-ylmethyl)methyl(phenyl)silane],100
2,CCCC[Si](C)(Cn1ccnc1)c1ccc(Cl)cc1 (stereo not shown) [Butyl(4-chlorophenyl)(1H-imidazol-1-ylmethyl)methylsilane],90
3,COc1ccc([Si](C)(C)Cn2ccnc2)cc1 [Dimethyl(1H-imidazol-1-ylmethyl)(4-methoxyphenyl)silane],0
4,C[Si](C)(Cn1ccnc1)c1ccc(Oc2ccc(Cl)cc2)cc1 [[4-(4-Chlorophenoxy)phenyl]dimethyl(1H-imidazol-1-ylmethyl)silane],0
5,C[Si](Cn1ccnc1)(c1ccc(F)cc1)c1ccc(F)cc1 [bis(4-Fluorophenyl)(1H-imidazol-1-ylmethyl)methylsilane],100

# Test system: Cercospora arachidicola
# Assay: peanut early leafspot control on peanut seedlings
# Type: in vivo
# Conditions: Mycosphaerella arachidis, 336 h
# Outline: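 Compounds dissolved in acetone (6% of final volume) and suspended at 100 ppm in water with 250 ppm TREM 014, sprayed to run-off on seedlings. Cercospora arachidicola inoculated next day; 24 h saturated humidity at 27°, then 14 days growth room before disease and leafspot rating.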
row,Compound,pest or weed control at 100 ppm [%]
1,C[Si](Cn1ccnc1)(c1ccccc1)c1ccc(F)cc1 (stereo not shown) [(4-Fluorophenyl)(1H-imidazol-1-ylmethyl)methyl(phenyl)silane],100
2,CCCC[Si](C)(Cn1ccnc1)c1ccc(Cl)cc1 (stereo not shown) [Butyl(4-chlorophenyl)(1H-imidazol-1-ylmethyl)methylsilane],0
3,COc1ccc([Si](C)(C)Cn2ccnc2)cc1 [Dimethyl(1H-imidazol-1-ylmethyl)(4-methoxyphenyl)silane],0
4,C[Si](C)(Cn1ccnc1)c1ccc(Oc2ccc(Cl)cc2)cc1 [[4-(4-Chlorophenoxy)phenyl]dimethyl(1H-imidazol-1-ylmethyl)silane],0
5,C[Si](Cn1ccnc1)(c1ccc(F)cc1)c1ccc(F)cc1 [bis(4-Fluorophenyl)(1H-imidazol-1-ylmethyl)methylsilane],100

# Test system: 5 Phytophthora species
# Assay: not given
# Type: cell-based
# Conditions: 200.0 ppm in agar, 22° C., 6 days; controlled = radial growth 1 mm or less
row,Compound,No. of 5 Phytophthora species controlled in vitro
1,C[Si](Cn1ccnc1)(c1ccccc1)c1ccc(F)cc1 (stereo not shown) [(4-Fluorophenyl)(1H-imidazol-1-ylmethyl)methyl(phenyl)silane],2
2,COc1ccc([Si](C)(C)Cn2ccnc2)cc1 [Dimethyl(1H-imidazol-1-ylmethyl)(4-methoxyphenyl)silane],0
3,C[Si](C)(Cn1ccnc1)c1ccc(Oc2ccc(Cl)cc2)cc1 [[4-(4-Chlorophenoxy)phenyl]dimethyl(1H-imidazol-1-ylmethyl)silane],0
4,C[Si](Cn1ccnc1)(c1ccc(F)cc1)c1ccc(F)cc1 [bis(4-Fluorophenyl)(1H-imidazol-1-ylmethyl)methylsilane],0

# Test system: Puccinia recondita var. tritici
# Assay: wheat leaf rust control on wheat seedlings
# Type: in vivo
# Conditions: 100 ppm, sprayed day before inoculation
# Outline: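 Compounds at 100 ppm (6% acetone, 250 ppm polyhydric alcohol ester surfactant in water) sprayed to run-off on wheat seedlings; inoculated next day with P. recondita spores. Kept 24 h at saturated humidity, 20°, then 7 days in growth room before rust pustule rating.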
row,Compound,pest or weed control at 100 ppm [%]
1,C[Si](Cn1ccnc1)(c1ccccc1)c1ccc(F)cc1 (stereo not shown) [(4-Fluorophenyl)(1H-imidazol-1-ylmethyl)methyl(phenyl)silane],0
2,CCCC[Si](C)(Cn1ccnc1)c1ccc(Cl)cc1 (stereo not shown) [Butyl(4-chlorophenyl)(1H-imidazol-1-ylmethyl)methylsilane],90
3,COc1ccc([Si](C)(C)Cn2ccnc2)cc1 [Dimethyl(1H-imidazol-1-ylmethyl)(4-methoxyphenyl)silane],60
4,C[Si](C)(Cn1ccnc1)c1ccc(Oc2ccc(Cl)cc2)cc1 [[4-(4-Chlorophenoxy)phenyl]dimethyl(1H-imidazol-1-ylmethyl)silane],90
5,C[Si](Cn1ccnc1)(c1ccc(F)cc1)c1ccc(F)cc1 [bis(4-Fluorophenyl)(1H-imidazol-1-ylmethyl)methylsilane],100

# Test system: Pythium aphanadermatum
# Assay: Pythium control on coated cotton seeds
# Type: in vivo
# Conditions: 168 h, 2 gm/kg seed, 1 week
# Source text: Several compounds of the previous examples were incorporated into a proprietary formulation and used to coat cotton seeds at a rate of 2 gm/kg seed. After being thoroughly coated, the seeds were allowed to air dry at room temperature. The cotton seeds were then planted into soil amended with the fungus Pythium aphanadermatum, sand, and corn meal at a rate sufficient to kill most untreated seeds. The seeds were held at room temperature for 1 week, after which time disease ratings were made.
row,Compound,pest or weed control at 2000 mg/kg [%]
1,CCCC[Si](C)(Cn1ccnc1)c1ccc(Cl)cc1 (stereo not shown) [Butyl(4-chlorophenyl)(1H-imidazol-1-ylmethyl)methylsilane],0

# Test system: Phytophthora infestans
# Assay: whole plant or invertebrate
# Type: in vivo
# Conditions: Phytophthora infestans, in Solanum lycopersicum, 168 h, read-out: % Control of Tomato Late Blight
row,Compound,pest or weed control at 100 ppm [%]
1,C[Si](Cn1ccnc1)(c1ccccc1)c1ccc(F)cc1 (stereo not shown) [(4-Fluorophenyl)(1H-imidazol-1-ylmethyl)methyl(phenyl)silane],0
2,CCCC[Si](C)(Cn1ccnc1)c1ccc(Cl)cc1 (stereo not shown) [Butyl(4-chlorophenyl)(1H-imidazol-1-ylmethyl)methylsilane],0
3,COc1ccc([Si](C)(C)Cn2ccnc2)cc1 [Dimethyl(1H-imidazol-1-ylmethyl)(4-methoxyphenyl)silane],0
4,C[Si](C)(Cn1ccnc1)c1ccc(Oc2ccc(Cl)cc2)cc1 [[4-(4-Chlorophenoxy)phenyl]dimethyl(1H-imidazol-1-ylmethyl)silane],0
5,C[Si](Cn1ccnc1)(c1ccc(F)cc1)c1ccc(F)cc1 [bis(4-Fluorophenyl)(1H-imidazol-1-ylmethyl)methylsilane],0

# Test system: Rhizoctonia solani
# Assay: rice sheath blight control on rice seedlings
# Type: in vivo
# Conditions: Rhizoctonia solani, 168 h, 7 days
# Outline: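 Rice seedlings sprayed to run-off with 100 ppm compound suspension (6% acetone, 250 ppm surfactant), then inoculated next day with bran/mycelium of Rhizoctonia solani. After 7 days in a growth room, sheath blight disease was rated.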
row,Compound,pest or weed control at 100 ppm [%]
1,C[Si](Cn1ccnc1)(c1ccccc1)c1ccc(F)cc1 (stereo not shown) [(4-Fluorophenyl)(1H-imidazol-1-ylmethyl)methyl(phenyl)silane],90
2,CCCC[Si](C)(Cn1ccnc1)c1ccc(Cl)cc1 (stereo not shown) [Butyl(4-chlorophenyl)(1H-imidazol-1-ylmethyl)methylsilane],0
3,COc1ccc([Si](C)(C)Cn2ccnc2)cc1 [Dimethyl(1H-imidazol-1-ylmethyl)(4-methoxyphenyl)silane],0
4,C[Si](C)(Cn1ccnc1)c1ccc(Oc2ccc(Cl)cc2)cc1 [[4-(4-Chlorophenoxy)phenyl]dimethyl(1H-imidazol-1-ylmethyl)silane],70
5,C[Si](Cn1ccnc1)(c1ccc(F)cc1)c1ccc(F)cc1 [bis(4-Fluorophenyl)(1H-imidazol-1-ylmethyl)methylsilane],90

# Test system: Pyricularia oryzae
# Assay: whole plant or invertebrate
# Type: in vivo
# Conditions: 168 h, read-out: % Control of Rice Blast
row,Compound,pest or weed control at 100 ppm [%]
1,C[Si](Cn1ccnc1)(c1ccccc1)c1ccc(F)cc1 (stereo not shown) [(4-Fluorophenyl)(1H-imidazol-1-ylmethyl)methyl(phenyl)silane],100
2,CCCC[Si](C)(Cn1ccnc1)c1ccc(Cl)cc1 (stereo not shown) [Butyl(4-chlorophenyl)(1H-imidazol-1-ylmethyl)methylsilane],0
3,COc1ccc([Si](C)(C)Cn2ccnc2)cc1 [Dimethyl(1H-imidazol-1-ylmethyl)(4-methoxyphenyl)silane],0
4,C[Si](C)(Cn1ccnc1)c1ccc(Oc2ccc(Cl)cc2)cc1 [[4-(4-Chlorophenoxy)phenyl]dimethyl(1H-imidazol-1-ylmethyl)silane],100
5,C[Si](Cn1ccnc1)(c1ccc(F)cc1)c1ccc(F)cc1 [bis(4-Fluorophenyl)(1H-imidazol-1-ylmethyl)methylsilane],0

# Test system: Erysiphe graminis
# Assay: barley powdery mildew control on barley seedlings
# Type: in vivo
# Conditions: Blumeria graminis, 168 h; 100 ppm, 7 days
# Method: Several compounds of the previous examples were again dissolved in acetone in an amount equal to 6% of the final volume and then suspended at a concentration of 100 ppm in purified water containing 250 ppm of the surfactant TREM 014 (polyhydric alcohol esters). This suspension was sprayed to the point of run-off on barley seedlings. The following day, the plants were inoculated with a spore suspension of the fungus Erysiphe graminis, causal agent of barley powdery mildew, and incubated in a growth room for 7 days. Disease ratings were then made. Treated plants had little or no powdery mildew in contrast to untreated plants which were covered with powdery mildew.
row,Compound,pest or weed control at 100 ppm [%]
1,CCCC[Si](C)(Cn1ccnc1)c1ccc(Cl)cc1 (stereo not shown) [Butyl(4-chlorophenyl)(1H-imidazol-1-ylmethyl)methylsilane],100
2,COc1ccc([Si](C)(C)Cn2ccnc2)cc1 [Dimethyl(1H-imidazol-1-ylmethyl)(4-methoxyphenyl)silane],100

# Test system: Pythium aphanadermatum
# Assay: Pythium control on coated corn seeds
# Type: in vivo
# Conditions: 504 h, 2 gm/kg seed, 49° F. 2 weeks then 70° F. 1 week
# Method: Several compounds of the previous examples were incorporated into a proprietary formulation and used to coat corn seeds at a rate of 2 gm/kg seed. After being thoroughly coated, the seeds were allowed to air dry at room temperature. The seeds were then planted into soil amended with a mixture of the fungus Pythium aphanadermatum, sand, and corn meal at a rate sufficient to kill most untreated seeds. The seeds were held at 49° F. for 2 weeks and then at 70° F. for 1 additional week. After this time disease ratings were made.
row,Compound,pest or weed control at 2000 mg/kg [%]
1,CCCC[Si](C)(Cn1ccnc1)c1ccc(Cl)cc1 (stereo not shown) [Butyl(4-chlorophenyl)(1H-imidazol-1-ylmethyl)methylsilane],0
2,C[Si](C)(Cn1ccnc1)c1ccc(Oc2ccc(Cl)cc2)cc1 [[4-(4-Chlorophenoxy)phenyl]dimethyl(1H-imidazol-1-ylmethyl)silane],0

# Test system: Helminthosporium maydis
# Assay: southern corn leaf blight control on corn seedlings
# Type: in vivo
# Conditions: Bipolaris maydis, 168 h
# Outline: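 Corn seedlings were sprayed to run-off with 100 ppm compound (6% acetone, 250 ppm TREM 014), inoculated next day with H. maydis spores, then kept 24 h at 20° in saturated humidity and 7 more days in a growth room. Lesions were rated as disease score.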
row,Compound,pest or weed control at 100 ppm [%]
1,C[Si](Cn1ccnc1)(c1ccccc1)c1ccc(F)cc1 (stereo not shown) [(4-Fluorophenyl)(1H-imidazol-1-ylmethyl)methyl(phenyl)silane],80
2,CCCC[Si](C)(Cn1ccnc1)c1ccc(Cl)cc1 (stereo not shown) [Butyl(4-chlorophenyl)(1H-imidazol-1-ylmethyl)methylsilane],50
3,COc1ccc([Si](C)(C)Cn2ccnc2)cc1 [Dimethyl(1H-imidazol-1-ylmethyl)(4-methoxyphenyl)silane],0
4,C[Si](C)(Cn1ccnc1)c1ccc(Oc2ccc(Cl)cc2)cc1 [[4-(4-Chlorophenoxy)phenyl]dimethyl(1H-imidazol-1-ylmethyl)silane],0
5,C[Si](Cn1ccnc1)(c1ccc(F)cc1)c1ccc(F)cc1 [bis(4-Fluorophenyl)(1H-imidazol-1-ylmethyl)methylsilane],60

# Test system: Monilinia fructicola
# Assay: stone fruit brown rot colony growth inhibition on canned peach halves
# Type: cell-based
# Conditions: 120 h, dipped 3 minutes, five days, percent growth inhibition of colonies, read-out: % Control Brown Rot
# Source text: Several compounds of the previous examples were again dissolved in acetone in an amount equal to 5% of the final volume and then suspended at a concentration of 100 ppm in purified water containing 700 ppm of the surfactant TREM 014 (polyhydric alcohol esters). Canned peach halves were dipped in this suspension for three minutes and then placed to air dry in sterile containers. Upon drying, the peach halves were inoculated with two pieces of Monilinia fructicola, causal agent of stone fruit brown rot, mycelium and then incubated in the sterile containers for five days. At that time the radii of the colonies' growth were measured on each peach. […] Percent disease contol (percent growth inhibition of colonies on treated peaches as compared to that of colonies on untreated peaches) is expressed in the table below.
row,Compound,inhibition of growth at 100 ppm [%]
1,C[Si](Cn1ccnc1)(c1ccccc1)c1ccc(F)cc1 (stereo not shown) [(4-Fluorophenyl)(1H-imidazol-1-ylmethyl)methyl(phenyl)silane],65
2,CCCC[Si](C)(Cn1ccnc1)c1ccc(Cl)cc1 (stereo not shown) [Butyl(4-chlorophenyl)(1H-imidazol-1-ylmethyl)methylsilane],45
